Reference: patent US12617783B2, “Heterocyclic GLP-1R agonists” (BIOMEA FUSION, INC., priority 2024, dated 2026)
Like-named read-outs stand apart in the source and are kept apart here.

Biological target: T1, human GLP-1R (Homo sapiens, UniProt P43220)
T1 construct: host or cells: HEK293
Assay: GLP-1R cAMP assay (Example B1a, HTRF, 30 min at room temperature)
Format: cell-based
Summary of the method: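 Competitive HTRF read-out of cAMP after 30 min room-temperature stimulation, BETP absent, of human GLP-1R-HEK293 cells (1,000/well) in HEPES buffer with 500 μM IBMX and 0.1% BSA. Activation normalised to GLP-1(7-37) positive control. EC50 from 4-parameter non-linear regression.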

[1] = cAMP accumulation in HEK293 expressing human GLP-1R, no BETP, 30 min room temperature (Method B1a, compounds ID 1-609), Table 1, read-out: EC50

T1 sequence (P43220 24-463): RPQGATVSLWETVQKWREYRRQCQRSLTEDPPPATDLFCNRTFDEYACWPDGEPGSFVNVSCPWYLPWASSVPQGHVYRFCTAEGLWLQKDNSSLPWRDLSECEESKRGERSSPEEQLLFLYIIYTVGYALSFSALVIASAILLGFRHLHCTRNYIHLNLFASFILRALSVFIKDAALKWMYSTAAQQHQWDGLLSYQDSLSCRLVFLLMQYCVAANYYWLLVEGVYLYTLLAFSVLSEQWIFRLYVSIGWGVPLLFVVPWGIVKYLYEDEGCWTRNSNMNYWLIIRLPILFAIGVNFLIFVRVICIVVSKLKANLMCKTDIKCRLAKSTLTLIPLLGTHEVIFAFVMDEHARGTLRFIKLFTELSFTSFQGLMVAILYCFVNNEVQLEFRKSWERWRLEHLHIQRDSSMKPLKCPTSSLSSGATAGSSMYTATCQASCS

SMILES | EC50 [1] [nM] | further results
Cc1cc(-n2nc3c(c2-n2ccn(-c4ccc5c(cnn5C)c4F)c2=O)[C@@H]2CC[C@H](C3)N2C(=O)c2cc3cc([C@@H]4CCOC(C)(C)C4)ncc3n2[C@@]2(c3noc(=O)[nH]3)C[C@@H]2C)cc(C)c1F [Compound 212, 3-((1S,2S)-1-(5-((R)-2,2-dimethyltetrahydro-2H-pyran-4-yl)-2-((4S,7R)-3-(3-(4-fluoro-1-methyl-1H-indazol-5-yl)-2-oxo-2,3-dihydro-1H-imidazol-1-yl)-2-(4-fluoro-3,5-dimethylphenyl)-2,4,5,6,7,8-hexahydro-4,7-epiminocyclohepta [c]pyrazole-9-carbonyl)-1H-pyrrolo[2,3-c]pyridin-1-yl)-2-methylcyclopropyl)-1,2,4-oxadiazol-5 (4H)-one] | 697 | –
CCP(=O)(CC)c1ccc(-n2ccn(-c3c4c(nn3-c3cc(C)c(F)c(C)c3)CCCN(C(=O)c3cc5cc(C6CCOCC6)ccc5n3[C@@]3(c5noc(=O)[nH]5)C[C@@H]3C)C4)c2=O)cc1NC [Compound 506, 3-[(1S,2S)-1-[2-[3-[3-[4-diethylphosphoryl-3-(methylamino)phenyl]-2-oxo-imidazol-1-yl]-2-(4-fluoro-3,5-dimethyl-phenyl)-4,6,7,8-tetrahydropyrazolo[4,3-c]azepine-5-carbonyl]-5-tetrahydropyran-4-yl-indol-1-yl]-2-methyl-cyclopropyl]-4H-1,2,4-oxadiazol-5-one] | 757 | –
Cc1cc(-n2nc3c(c2-n2ccn(-c4ccc(C(N)=O)c(F)c4)c2=O)[C@@H]2CC[C@H](C3)N2C(=O)c2cc3cc([C@H]4CCOC(C)(C)C4)ccc3n2C2(c3noc(=O)[nH]3)CC2)cc(C)c1F [Compound 117, 4-[3-[(1S,8R)-11-[5-[(4S)-2,2-dimethyltetrahydropyran-4-yl]-1-[1-(5-oxo-4H-1,2,4-oxadiazol-3-yl)cyclopropyl]indole-2-carbonyl]-4-(4-fluoro-3,5-dimethyl-phenyl)-4,5,11-triazatricyclo[6.2.1.02,6]undeca-2,5-dien-3-yl]-2-oxo-imidazol-1-yl]-2-fluoro-benzamide] | > 10000 | –
Cc1cc(-n2nc3c(c2-n2ccn(-c4ccc5c(cnn5C)c4F)c2=O)[C@@H]2CCC[C@H](C3)N2C(=O)c2cc3cc([C@H]4CCOC(C)(C)C4)ccc3n2[C@@]2(c3noc(=O)[nH]3)C[C@@H]2C)cc(C)c1F [Compound 433, 3-((1S,2S)-1-(5-((S)-2,2-dimethyltetrahydro-2H-pyran-4-yl)-2-((4S,8R)-3-(3-(4-fluoro-1-methyl-1H-indazol-5-yl)-2-oxo-2,3-dihydro-1H-imidazol-1-yl)-2-(4-fluoro-3,5-dimethylphenyl)-4,5,6,7,8,9-hexahydro-2H-4,8-epiminocycloocta [c]pyrazole-10-carbonyl)-1H-indol-1-yl)-2-methylcyclopropyl)-1,2,4-oxadiazol-5 (4H)-one] | 30 | EC50 Ratio (Table 1d, potency ratio of stereoisomer pair (less potent / more potent isomer)): >333; EC50 (Table 1d, stereoisomer pairs, read-out: EC50): 30 nM; EC50 (text to Table 1d, bridge atoms configured into the plane or away from the reader, read-out: potency (EC50)): < 1000 nM
Cc1cc(-n2nc3c(c2-n2ccn(-c4ccc5c(cnn5C)c4F)c2=O)[C@@H]2CC[C@H](C3)N2C(=O)c2cc3cc(C4CCOC4(C)C)ccc3n2[C@@]2(c3noc(=O)[nH]3)C[C@@H]2C)cc(C)c1F (stereo partly drawn) [Compound 413, 3-[(1S,2S)-1-[5-(2,2-dimethyltetrahydrofuran-3-yl)-2-[(1S,8R)-4-(4-fluoro-3,5-dimethyl-phenyl)-3-[3-(4-fluoro-1-methyl-indazol-5-yl)-2-oxo-imidazol-1-yl]-4,5,11-triazatricyclo[6.2.1.02,6]undeca-2,5-diene-11-carbonyl]indol-1-yl]-2-methyl-cyclopropyl]-4H-1,2,4-oxadiazol-5-one] | 1770 | –
Cc1cc(-n2nc3c(c2-n2ccn(-c4ccc(C(=O)N(C)C5CC5)c(Cl)c4)c2=O)[C@@H]2CCC[C@H](C3)N2C(=O)c2cc3cc([C@H]4CCOC(C)(C)C4)ccc3n2[C@@]2(c3noc(=O)[nH]3)C[C@@H]2C)cc(C)c1F [Compound 543, 2-chloro-N-cyclopropyl-4-[3-[(1S,8R)-12-[5-[(4S)-2,2-dimethyltetrahydropyran-4-yl]-1-[(1S,2S)-2-methyl-1-(5-oxo-4H-1,2,4-oxadiazol-3-yl)cyclopropyl]indole-2-carbonyl]-4-(4-fluoro-3,5-dimethyl-phenyl)-4,5,12-triazatricyclo[6.3.1.02,6]dodeca-2,5-dien-3-yl]-2-oxo-imidazol-1-yl]-N-methyl-benzamide] | ≥ 10000 | –
Cc1cc(-n2nc3c(c2-n2ccn(-c4ccc5c(cnn5C)c4F)c2=O)[C@@H]2CC[C@H](C3)N2C(=O)c2cc3cc([C@@H]4CCOC5(CCC5)C4)ccc3n2[C@@]2(c3noc(=O)[nH]3)C[C@@H]2C)cc(C)c1F [Compound 424, 3-((1S,2S)-1-(2-((4S,7R)-3-(3-(4-fluoro-1-methyl-1H-indazol-5-yl)-2-oxo-2,3-dihydro-1H-imidazol-1-yl)-2-(4-fluoro-3,5-dimethylphenyl)-2,4,5,6,7,8-hexahydro-4,7-epiminocyclohepta [c]pyrazole-9-carbonyl)-5-((R)-5-oxaspiro[3.5]nonan-8-yl)-1H-indol-1-yl)-2-methylcyclopropyl)-1,2,4-oxadiazol-5(4H)-one] | ≥ 10000 | –
Cc1cc(-n2nc3c(c2-n2ccn(-c4cccc(C(N)=O)c4F)c2=O)[C@@H]2CC[C@H](C3)N2C(=O)c2cc3cc([C@H]4CCOC(C)(C)C4)ccc3n2C2(c3noc(=O)[nH]3)CC2)cc(C)c1F [Compound 125, 3-[3-[(1S,8R)-11-[5-[(4S)-2,2-dimethyltetrahydropyran-4-yl]-1-[1-(5-oxo-4H-1,2,4-oxadiazol-3-yl)cyclopropyl]indole-2-carbonyl]-4-(4-fluoro-3,5-dimethyl-phenyl)-4,5,11-triazatricyclo[6.2.1.02,6]undeca-2,5-dien-3-yl]-2-oxo-imidazol-1-yl]-2-fluoro-benzamide] | > 10000 | –

The remaining compounds from weak to strong by EC50 [1], led by results:

EC50 [1] [nM] | SMILES | further results
600 | Cc1cc(-n2nc3c(c2-n2ccn(-c4ccc5[nH]ncc5c4F)c2=O)CN(C(=O)c2cc4cc([C@H]5CCOC(C)(C)C5)ccc4n2[C@@]2(c4noc(=O)[nH]4)C[C@@H]2C)CCC3)cc(C)c1F [Compound 505, 3-[(1S,2S)-1-[5-[(4S)-2,2-dimethyltetrahydropyran-4-yl]-2-[2-(4-fluoro-3,5-dimethyl-phenyl)-3-[3-(4-fluoro-1H-indazol-5-yl)-2-oxo-imidazol-1-yl]-4,6,7,8-tetrahydropyrazolo[4,3-c]azepine-5-carbonyl]indol-1-yl]-2-methyl-cyclopropyl]-4H-1,2,4-oxadiazol-5-one] | –
588 | Cc1cc(-n2nc3c(c2-n2ccn(-c4ccc5c(cnn5C)c4F)c2=O)C2CCC([C@H]3F)N2C(=O)c2cc3cc([C@H]4CCOC(C)(C)C4)ccc3n2[C@@]2(c3noc(=O)[nH]3)C[C@@H]2C)cc(C)c1F (stereo partly drawn) [Compound 511, 3-[(1S,2S)-1-[5-[(4S)-2,2-dimethyltetrahydropyran-4-yl]-2-[(7R)-7-fluoro-4-(4-fluoro-3,5-dimethyl-phenyl)-3-[3-(4-fluoro-1-methyl-indazol-5-yl)-2-oxo-imidazol-1-yl]-4,5,11-triazatricyclo[6.2.1.02,6]undeca-2,5-diene-11-carbonyl]indol-1-yl]-2-methyl-cyclopropyl]-4H-1,2,4-oxadiazol-5-one] | –
390 | CNC(=O)[C@]1(n2c(C(=O)N3[C@@H]4CC[C@H]3c3c(nn(-c5cc(C)c(F)c(C)c5)c3-n3ccn(-c5ccc6c(cnn6C)c5F)c3=O)C4)cc3cc([C@H]4CCOC(C)(C)C4)ccc32)C[C@@H]1C [Compound 244, cis-(1S,2S)-1-[5-[(4S)-2,2-dimethyltetrahydropyran-4-yl]-2-[(1S,8R)-4-(4-fluoro-3,5-dimethyl-phenyl)-3-[3-(4-fluoro-1-methyl-indazol-5-yl)-2-oxo-imidazol-1-yl]-4,5,11-triazatricyclo[6.2.1.02,6]undeca-2,5-diene-11-carbonyl]indol-1-yl]-N,2-dimethyl-cyclopropanecarboxamide] | –
162 | Cc1cc(-n2nc3c(c2-n2ccn(-c4ccc5c(cnn5C)c4F)c2=O)CN(C(=O)c2cc4cc([C@H]5CCOC(C)(C)C5)ccc4n2[C@@]2(c4noc(=O)[nH]4)C[C@@H]2C)CCC3)cc(C)c1F [Compound 416, 3-((1S,2S)-1-(5-((S)-2,2-dimethyltetrahydro-2H-pyran-4-yl)-2-(3-(3-(4-fluoro-1-methyl-1H-indazol-5-yl)-2-oxo-2,3-dihydro-1H-imidazol-1-yl)-2-(4-fluoro-3,5-dimethylphenyl)-2,4,5,6,7,8-hexahydropyrazolo[4,3-c]azepine-5-carbonyl)-1H-indol-1-yl)-2-methylcyclopropyl)-1,2,4-oxadiazol-5(4H)-one] | –
125 | COc1cc2c(F)c(-n3ccn(-c4c5c(nn4-c4cc(C)c(F)c(C)c4)C[C@H]4CC[C@@H]5N4C(=O)c4cc5cc([C@H]6CCOC(C)(C)C6)ccc5n4[C@@]4(c5noc(=O)[nH]5)C[C@@H]4C)c3=O)ccn2n1 [Compound 431, 3-((1S,2S)-1-(5-((S)-2,2-dimethyltetrahydro-2H-pyran-4-yl)-2-((4S,7R)-3-(3-(4-fluoro-2-methoxypyrazolo[1,5-a]pyridin-5-yl)-2-oxo-2,3-dihydro-1H-imidazol-1-yl)-2-(4-fluoro-3,5-dimethylphenyl)-2,4,5,6,7,8-hexahydro-4,7-epiminocyclohepta [c]pyrazole-9-carbonyl)-1H-indol-1-yl)-2-methylcyclopropyl)-1,2,4-oxadiazol-5 (4H)-one] | –
57.3 | Cc1cc(-n2nc3c(c2-n2ccn(-c4ccc5c(cnn5C)c4F)c2=O)[C@@H]2CC[C@H](C3)N2C(=O)c2cc3cc(C4CCOC(C)(C)C4)cnc3n2[C@@]2(c3noc(=O)[nH]3)C[C@@H]2C)cc(C)c1F (stereo partly drawn) [Compound 311, 3-((1S,2S)-1-(5-(2,2-dimethyltetrahydro-2H-pyran-4-yl)-2-((4S,7R)-3-(3-(4-fluoro-1-methyl-1H-indazol-5-yl)-2-oxo-2,3-dihydro-1H-imidazol-1-yl)-2-(4-fluoro-3,5-dimethylphenyl)-2,4,5,6,7,8-hexahydro-4,7-epiminocyclohepta [c]pyrazole-9-carbonyl)-1H-pyrrolo[2,3-b]pyridin-1-yl)-2-methylcyclopropyl)-1,2,4-oxadiazol-5(4H)-one] | –
